# Key:
# [1] = Transepithelial transfer; format: in vitro ADME, human; details: human, Caco-2, pH 7.4
# [2] = system: Caco-2 cell monolayers; test: Transepithelial transfer; format: in vitro ADME, human; details: for compound found in cells: cell homogenate after 4 h, before or after deconjugation; for uptake (transport rate): 4 h
# [3] = ref Konishi et al. 2005; Bérangère et al., 2004; cited from earlier work
"recovery at 4 h, 10 μM [1] [%]","basolateral detection at 0.5 and 1 h ([2]; before deconjugation, 10 μM RA)",basolateral recovery of paracellular marker ([2]; 100 μM LY) [%],"Papp before deconjugation ([2]; apical to basolateral, HBSS pH 7.4, RA 10 μM, UA 5, 10 and 20 μM, LY 100 μM) [cm/s ×10^−6]",Compound,compound found in cells [2],partition coefficient (Log P) [3],detection of UA after apical application of P. vulgaris extracts ([2]; apically-applied P. vulgaris extracts containing 1-10 μM RA),"uptake (transport rate) ([2]; highest tested concentration, 20 μM) [μM/h/cm^2]","uptake (transport rate) ([2]; lowest tested concentration, 5 μM) [μM/h/cm^2]"
86.7 ± 2.9,not detected,,,"O=C(/C=C/c1ccc(O)c(O)c1)O[C@H](Cc1ccc(O)c(O)c1)C(=O)O [RA, Rosmarinic acid]",neither RA nor UA was found in cells,0.2,,,
,,,,"C[C@H]1[C@H](C)CC[C@]2(C(=O)O)CC[C@]3(C)C(=CC[C@@H]4[C@@]5(C)CC[C@H](O)C(C)(C)[C@@H]5CC[C@]43C)[C@H]12 [UA, Ursolic acid]",neither RA nor UA was found in cells,6.4,not detected,0.2 ± 0.04,0.03 ± 0.01
,,0.5 ± 0.1,0.3 ± 0.1,"lucifer yellow [LY, reference compound]",,,,,
